Assay type in all cases: functional
Assay [1] deals with ALK tyrosine kinase receptor (Homo sapiens, UniProt Q9UM73).
A further assay has as its target Activated CDC42 kinase 1 (Homo sapiens, UniProt Q07912). The experiment in a line: Navigating the Kinome. Panel member name: ACK1.
The target of another assay is Activin receptor type-1 (Homo sapiens, UniProt Q04771). The assay can be described thus: Navigating the Kinome. Panel member name: ACVR1.
The target in assay [2] is Fibroblast growth factor receptor 1 (Homo sapiens, UniProt P11362).
Assay [3] deals with Serine/threonine-protein kinase pim-1 (Homo sapiens, UniProt P11309).
For assay [4], the target named is Dual specificity protein kinase CLK2 (Homo sapiens, UniProt P49760).
Assay [5] concerns the target Serine/threonine-protein kinase D3 (Homo sapiens, UniProt O94806).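 Note: determined within a kinase panel screen, with PRKCN as the panel member.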
Assay [6] concerns the target T1, Tyrosine-protein kinase JAK3 (Homo sapiens, UniProt P52333).
T1 sequence (P52333 whole entry): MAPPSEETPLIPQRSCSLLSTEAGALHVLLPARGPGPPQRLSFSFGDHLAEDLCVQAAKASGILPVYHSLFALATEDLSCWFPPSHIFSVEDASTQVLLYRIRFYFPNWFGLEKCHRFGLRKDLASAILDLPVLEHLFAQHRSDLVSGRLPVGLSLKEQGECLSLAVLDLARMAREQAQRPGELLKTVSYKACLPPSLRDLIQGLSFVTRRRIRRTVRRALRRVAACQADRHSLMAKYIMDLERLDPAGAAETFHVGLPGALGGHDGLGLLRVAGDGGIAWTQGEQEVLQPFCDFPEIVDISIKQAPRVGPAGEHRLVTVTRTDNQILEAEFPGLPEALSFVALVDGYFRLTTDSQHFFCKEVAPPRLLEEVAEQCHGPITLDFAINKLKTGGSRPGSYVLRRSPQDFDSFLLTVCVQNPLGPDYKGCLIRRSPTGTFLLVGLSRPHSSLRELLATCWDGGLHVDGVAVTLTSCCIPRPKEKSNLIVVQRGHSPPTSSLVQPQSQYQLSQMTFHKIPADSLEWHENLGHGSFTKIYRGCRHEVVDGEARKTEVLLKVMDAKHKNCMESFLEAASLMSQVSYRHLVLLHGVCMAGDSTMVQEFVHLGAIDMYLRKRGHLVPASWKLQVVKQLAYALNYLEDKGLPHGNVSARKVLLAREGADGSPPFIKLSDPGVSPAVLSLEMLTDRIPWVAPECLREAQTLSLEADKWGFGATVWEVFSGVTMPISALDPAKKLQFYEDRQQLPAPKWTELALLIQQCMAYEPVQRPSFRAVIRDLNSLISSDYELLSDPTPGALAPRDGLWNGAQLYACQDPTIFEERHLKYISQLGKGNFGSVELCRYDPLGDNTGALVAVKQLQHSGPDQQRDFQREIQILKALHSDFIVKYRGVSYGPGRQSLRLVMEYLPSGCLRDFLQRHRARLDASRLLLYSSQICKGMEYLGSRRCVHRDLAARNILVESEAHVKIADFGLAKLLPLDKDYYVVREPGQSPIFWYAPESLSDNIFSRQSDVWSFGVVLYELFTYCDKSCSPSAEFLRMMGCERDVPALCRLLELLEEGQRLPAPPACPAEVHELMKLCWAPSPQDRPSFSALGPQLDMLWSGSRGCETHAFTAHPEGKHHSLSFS

In assay [7] the target is Serine/threonine-protein kinase PAK 4 (Homo sapiens, UniProt O96013).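 Note: value obtained within a kinome profiling panel in which PAK4 was one of the panel members.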
For a further assay, the target named is Focal adhesion kinase 1 (Homo sapiens, UniProt Q05397).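 Note: measured as one member of a kinome panel.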
For a further assay, the target named is Aurora kinase B (Homo sapiens, UniProt Q96GD4).
The target of assay [8] is Casein kinase I isoform alpha (Homo sapiens, UniProt P48729).
The target in assay [9] is Serine/threonine-protein kinase TAO1 (Homo sapiens, UniProt Q7L7X3).
For assay [10], the target named is T2, Serine/threonine-protein kinase Chk1 (Homo sapiens, UniProt O14757).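 Note: measured as one member of a kinome-wide kinase profiling panel.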
T2 sequence (O14757 whole entry): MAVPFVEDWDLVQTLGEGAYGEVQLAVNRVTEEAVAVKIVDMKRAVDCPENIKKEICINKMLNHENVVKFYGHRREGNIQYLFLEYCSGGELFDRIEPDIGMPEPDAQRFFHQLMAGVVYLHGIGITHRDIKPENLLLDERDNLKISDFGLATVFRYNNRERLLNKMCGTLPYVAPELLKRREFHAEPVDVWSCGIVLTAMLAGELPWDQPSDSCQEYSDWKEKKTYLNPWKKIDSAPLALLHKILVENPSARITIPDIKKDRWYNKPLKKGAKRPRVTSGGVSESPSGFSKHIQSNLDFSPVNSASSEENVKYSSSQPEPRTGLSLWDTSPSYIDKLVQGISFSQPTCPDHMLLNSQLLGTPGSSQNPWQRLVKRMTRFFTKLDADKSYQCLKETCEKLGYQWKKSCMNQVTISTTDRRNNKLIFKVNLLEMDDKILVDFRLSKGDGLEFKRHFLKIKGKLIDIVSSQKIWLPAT

The target of assay [11] is Mitogen-activated protein kinase kinase kinase kinase 4 (Homo sapiens, UniProt O95819).
Assay [12] has as its target Death-associated protein kinase 3 (Homo sapiens, UniProt O43293).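 Note: measured as one member of a kinome-wide profiling panel.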
Assay [13] deals with Cyclin-dependent kinase 7 (Homo sapiens, UniProt P50613).
Assay [14] has as its target Cyclin-dependent kinase 8 (Homo sapiens, UniProt P49336). The assay can be described thus: Navigating the Kinome. Panel member name: CDK8.
The target in assay [15] is G protein-coupled receptor kinase 5 (Homo sapiens, UniProt P34947). The assay can be described thus: Navigating the Kinome. Panel member name: GPRK5.
The target of assay [16] is Tyrosine-protein kinase Lck (Homo sapiens, UniProt P06239).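 Note: lck was assayed as one member of a kinase panel.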
The target in assay [17] is Tyrosine-protein kinase BTK (Homo sapiens, UniProt Q06187).
Assay [18] deals with Mitogen-activated protein kinase 8 (Homo sapiens, UniProt P45983).
For assay [19], the target named is Glycogen synthase kinase-3 alpha (Homo sapiens, UniProt P49840).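 Note: GSK3A result taken from a broad kinome-wide kinase panel.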
Assay [20] addresses Calcium/calmodulin-dependent protein kinase type II subunit alpha (Homo sapiens, UniProt Q9UQM7). The experiment in a line: Navigating the Kinome. Panel member name: CAMK2A.
The target in assay [21] is Mitogen-activated protein kinase 14 (Homo sapiens, UniProt Q16539).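 Note: part of a kinome-wide panel, MAPK14 entry.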
Assay [22] has as its target Tyrosine-protein kinase Fyn (Homo sapiens, UniProt P06241).
The target of assay [23] is Sphingosine 1-phosphate receptor 4 (Homo sapiens, UniProt O95977). The experiment in a line: Late-stage fluorescence-based dose-response cell-based counterscreen assay to identify agonists of the Sphingosine 1-Phosphate Receptor 3 (S1P3): Sphingosine 1-Phosphate Receptor 4 (S1P4) agonist assay. A general note: The purpose of a counterscreen is to sort out artefacts and off-target activity.

Assay [24] in a line: Late-stage assay provider results from the probe development effort to identify agonists of the Sphingosine 1-Phosphate Receptor 3 (S1P3): luminescence-based cell-based dose response counterscreen assay to determine cytotoxicity of agonist compounds.
Assay [25] addresses Sphingosine 1-phosphate receptor 2 (Homo sapiens, UniProt O95136). The assay can be described thus: Late-stage fluorescence-based dose-response cell-based counterscreen assay to identify agonists of the Sphingosine 1-Phosphate Receptor 3 (S1P3): Sphingosine 1-Phosphate Receptor 2 (S1P2) agonist assay.
The target in assay [26] is Sphingosine 1-phosphate receptor 5 (Homo sapiens, UniProt Q9H228). The assay can be described thus: Late-stage fluorescence-based dose-response cell-based counterscreen assay to identify agonists of the Sphingosine 1-Phosphate Receptor 3 (S1P3): Sphingosine 1-Phosphate Receptor 5 (S1P5) agonist assay.
For assay [27], the target named is Calcium/calmodulin-dependent protein kinase type II subunit gamma (Homo sapiens, UniProt Q13555).
Assay [28] addresses Serine/threonine-protein kinase pim-3 (Homo sapiens, UniProt Q86V86).
The target in assay [29] is Calcium/calmodulin-dependent protein kinase type II subunit beta (Homo sapiens, UniProt Q13554).
Assay [30] addresses Interleukin-1 receptor-associated kinase 1 (Homo sapiens, UniProt P51617).
Assay [31] deals with Calcium/calmodulin-dependent protein kinase type II subunit delta (Homo sapiens, UniProt Q13557).

Activity calls are given as the source filed them. Bounds are passed on as bounds.

The record followed here is ChEMBL document CHEMBL1201862, “PubChem BioAssay data set” (2004).

Sequence of Serine/threonine-protein kinase pim-1 (P11309 whole entry): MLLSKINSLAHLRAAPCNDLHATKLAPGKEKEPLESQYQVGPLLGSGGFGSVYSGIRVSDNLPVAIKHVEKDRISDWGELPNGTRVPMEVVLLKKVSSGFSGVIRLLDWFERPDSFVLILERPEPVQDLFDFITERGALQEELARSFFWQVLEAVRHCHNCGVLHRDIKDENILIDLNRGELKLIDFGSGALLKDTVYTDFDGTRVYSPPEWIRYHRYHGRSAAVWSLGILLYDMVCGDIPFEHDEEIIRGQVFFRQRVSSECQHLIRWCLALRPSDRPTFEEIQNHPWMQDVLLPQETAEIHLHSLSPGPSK
Sequence of Calcium/calmodulin-dependent protein kinase type II subunit gamma (Q13555 whole entry): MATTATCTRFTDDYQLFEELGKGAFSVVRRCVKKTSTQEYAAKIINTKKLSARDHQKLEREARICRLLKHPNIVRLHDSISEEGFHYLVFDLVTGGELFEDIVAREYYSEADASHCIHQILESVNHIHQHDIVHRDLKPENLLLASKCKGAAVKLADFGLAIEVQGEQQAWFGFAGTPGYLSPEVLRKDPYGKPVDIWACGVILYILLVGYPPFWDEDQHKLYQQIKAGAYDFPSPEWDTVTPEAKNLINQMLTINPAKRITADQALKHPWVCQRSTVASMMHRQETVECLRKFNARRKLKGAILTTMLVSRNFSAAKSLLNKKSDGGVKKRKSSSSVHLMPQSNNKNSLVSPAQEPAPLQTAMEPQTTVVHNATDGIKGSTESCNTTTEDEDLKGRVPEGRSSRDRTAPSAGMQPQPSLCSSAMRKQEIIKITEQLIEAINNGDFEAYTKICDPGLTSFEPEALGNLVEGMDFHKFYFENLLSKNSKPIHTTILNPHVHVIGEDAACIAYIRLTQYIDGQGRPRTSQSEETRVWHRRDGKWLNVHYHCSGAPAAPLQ
Sequence of Mitogen-activated protein kinase kinase kinase kinase 4 (O95819 whole entry): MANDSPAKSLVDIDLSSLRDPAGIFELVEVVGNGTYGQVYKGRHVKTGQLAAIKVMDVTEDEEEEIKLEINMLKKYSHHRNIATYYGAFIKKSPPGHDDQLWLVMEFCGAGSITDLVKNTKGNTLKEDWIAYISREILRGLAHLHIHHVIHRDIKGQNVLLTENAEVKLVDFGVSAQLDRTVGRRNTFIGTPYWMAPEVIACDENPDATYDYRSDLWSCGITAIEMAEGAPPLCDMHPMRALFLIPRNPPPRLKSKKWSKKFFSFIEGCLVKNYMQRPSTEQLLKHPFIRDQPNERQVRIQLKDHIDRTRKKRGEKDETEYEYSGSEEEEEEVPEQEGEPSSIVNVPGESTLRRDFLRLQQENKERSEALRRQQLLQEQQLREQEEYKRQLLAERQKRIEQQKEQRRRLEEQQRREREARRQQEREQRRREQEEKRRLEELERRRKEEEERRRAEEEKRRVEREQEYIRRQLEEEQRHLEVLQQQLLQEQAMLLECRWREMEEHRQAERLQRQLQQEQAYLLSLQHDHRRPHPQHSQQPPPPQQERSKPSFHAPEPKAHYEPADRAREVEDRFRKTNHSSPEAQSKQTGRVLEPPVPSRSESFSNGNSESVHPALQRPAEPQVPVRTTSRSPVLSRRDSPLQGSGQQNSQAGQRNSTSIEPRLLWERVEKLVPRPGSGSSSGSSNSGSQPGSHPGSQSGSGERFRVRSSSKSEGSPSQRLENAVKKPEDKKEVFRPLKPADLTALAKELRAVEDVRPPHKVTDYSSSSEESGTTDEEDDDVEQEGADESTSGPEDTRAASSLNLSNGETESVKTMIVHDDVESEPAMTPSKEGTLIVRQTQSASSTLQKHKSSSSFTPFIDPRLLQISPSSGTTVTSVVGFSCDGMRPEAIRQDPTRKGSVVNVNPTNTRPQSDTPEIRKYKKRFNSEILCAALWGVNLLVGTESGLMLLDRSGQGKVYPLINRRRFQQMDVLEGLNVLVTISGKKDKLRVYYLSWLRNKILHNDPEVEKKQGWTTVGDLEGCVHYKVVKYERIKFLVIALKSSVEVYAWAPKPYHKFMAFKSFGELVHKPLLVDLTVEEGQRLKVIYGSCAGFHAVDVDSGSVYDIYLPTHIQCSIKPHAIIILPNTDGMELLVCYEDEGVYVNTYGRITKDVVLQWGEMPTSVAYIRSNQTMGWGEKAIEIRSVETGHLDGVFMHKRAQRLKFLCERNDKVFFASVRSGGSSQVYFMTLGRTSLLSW
Sequence of Tyrosine-protein kinase Lck (P06239 whole entry): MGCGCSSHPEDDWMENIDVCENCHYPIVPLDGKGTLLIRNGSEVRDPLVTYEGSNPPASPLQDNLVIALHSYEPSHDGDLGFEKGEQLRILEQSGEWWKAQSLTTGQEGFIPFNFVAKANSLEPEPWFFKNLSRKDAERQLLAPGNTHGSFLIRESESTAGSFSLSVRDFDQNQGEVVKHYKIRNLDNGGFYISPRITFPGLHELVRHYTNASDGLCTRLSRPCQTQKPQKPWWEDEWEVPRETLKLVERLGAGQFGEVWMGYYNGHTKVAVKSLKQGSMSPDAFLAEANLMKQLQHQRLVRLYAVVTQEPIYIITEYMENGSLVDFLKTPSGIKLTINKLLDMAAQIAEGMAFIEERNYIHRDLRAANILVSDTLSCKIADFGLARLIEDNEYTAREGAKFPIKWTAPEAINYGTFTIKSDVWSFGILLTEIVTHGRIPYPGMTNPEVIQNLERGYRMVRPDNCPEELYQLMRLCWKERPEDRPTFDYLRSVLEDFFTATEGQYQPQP
Sequence of Cyclin-dependent kinase 8 (P49336 whole entry): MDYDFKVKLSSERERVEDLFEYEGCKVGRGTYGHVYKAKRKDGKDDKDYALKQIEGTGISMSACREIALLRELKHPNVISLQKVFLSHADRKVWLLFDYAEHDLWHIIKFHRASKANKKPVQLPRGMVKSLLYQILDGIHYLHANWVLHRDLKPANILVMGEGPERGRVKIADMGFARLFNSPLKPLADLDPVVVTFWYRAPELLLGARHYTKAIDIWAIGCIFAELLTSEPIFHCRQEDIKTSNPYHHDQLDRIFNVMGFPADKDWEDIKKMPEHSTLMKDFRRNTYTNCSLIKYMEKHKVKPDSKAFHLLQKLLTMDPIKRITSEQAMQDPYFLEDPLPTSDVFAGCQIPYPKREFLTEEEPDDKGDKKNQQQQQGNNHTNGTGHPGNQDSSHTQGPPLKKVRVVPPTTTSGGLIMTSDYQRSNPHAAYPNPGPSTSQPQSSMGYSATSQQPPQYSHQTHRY
Sequence of Dual specificity protein kinase CLK2 (P49760 whole entry): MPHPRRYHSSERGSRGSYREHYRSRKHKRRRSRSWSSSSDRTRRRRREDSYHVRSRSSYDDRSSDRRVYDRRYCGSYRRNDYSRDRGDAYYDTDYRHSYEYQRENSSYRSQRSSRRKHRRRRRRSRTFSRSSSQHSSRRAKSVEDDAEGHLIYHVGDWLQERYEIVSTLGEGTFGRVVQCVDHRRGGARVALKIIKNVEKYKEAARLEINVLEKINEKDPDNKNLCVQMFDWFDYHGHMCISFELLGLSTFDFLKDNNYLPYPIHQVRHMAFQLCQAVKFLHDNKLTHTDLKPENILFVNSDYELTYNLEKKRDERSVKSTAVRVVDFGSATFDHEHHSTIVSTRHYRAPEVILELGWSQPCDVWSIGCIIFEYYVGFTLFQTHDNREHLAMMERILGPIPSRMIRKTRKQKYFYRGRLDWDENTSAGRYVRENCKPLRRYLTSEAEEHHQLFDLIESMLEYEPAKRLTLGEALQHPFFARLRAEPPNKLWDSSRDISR
Sequence of Sphingosine 1-phosphate receptor 5 (Q9H228 whole entry): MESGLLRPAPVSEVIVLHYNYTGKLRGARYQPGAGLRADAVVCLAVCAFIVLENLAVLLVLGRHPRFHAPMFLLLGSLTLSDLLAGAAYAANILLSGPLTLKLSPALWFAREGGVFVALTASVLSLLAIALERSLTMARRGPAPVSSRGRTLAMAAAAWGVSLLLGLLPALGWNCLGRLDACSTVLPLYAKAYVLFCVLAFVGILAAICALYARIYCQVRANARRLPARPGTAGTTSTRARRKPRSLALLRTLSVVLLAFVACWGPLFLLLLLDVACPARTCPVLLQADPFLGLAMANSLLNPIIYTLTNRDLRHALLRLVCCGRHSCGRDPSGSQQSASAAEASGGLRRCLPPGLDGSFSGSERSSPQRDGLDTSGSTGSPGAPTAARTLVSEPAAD
Sequence of Focal adhesion kinase 1 (Q05397 whole entry): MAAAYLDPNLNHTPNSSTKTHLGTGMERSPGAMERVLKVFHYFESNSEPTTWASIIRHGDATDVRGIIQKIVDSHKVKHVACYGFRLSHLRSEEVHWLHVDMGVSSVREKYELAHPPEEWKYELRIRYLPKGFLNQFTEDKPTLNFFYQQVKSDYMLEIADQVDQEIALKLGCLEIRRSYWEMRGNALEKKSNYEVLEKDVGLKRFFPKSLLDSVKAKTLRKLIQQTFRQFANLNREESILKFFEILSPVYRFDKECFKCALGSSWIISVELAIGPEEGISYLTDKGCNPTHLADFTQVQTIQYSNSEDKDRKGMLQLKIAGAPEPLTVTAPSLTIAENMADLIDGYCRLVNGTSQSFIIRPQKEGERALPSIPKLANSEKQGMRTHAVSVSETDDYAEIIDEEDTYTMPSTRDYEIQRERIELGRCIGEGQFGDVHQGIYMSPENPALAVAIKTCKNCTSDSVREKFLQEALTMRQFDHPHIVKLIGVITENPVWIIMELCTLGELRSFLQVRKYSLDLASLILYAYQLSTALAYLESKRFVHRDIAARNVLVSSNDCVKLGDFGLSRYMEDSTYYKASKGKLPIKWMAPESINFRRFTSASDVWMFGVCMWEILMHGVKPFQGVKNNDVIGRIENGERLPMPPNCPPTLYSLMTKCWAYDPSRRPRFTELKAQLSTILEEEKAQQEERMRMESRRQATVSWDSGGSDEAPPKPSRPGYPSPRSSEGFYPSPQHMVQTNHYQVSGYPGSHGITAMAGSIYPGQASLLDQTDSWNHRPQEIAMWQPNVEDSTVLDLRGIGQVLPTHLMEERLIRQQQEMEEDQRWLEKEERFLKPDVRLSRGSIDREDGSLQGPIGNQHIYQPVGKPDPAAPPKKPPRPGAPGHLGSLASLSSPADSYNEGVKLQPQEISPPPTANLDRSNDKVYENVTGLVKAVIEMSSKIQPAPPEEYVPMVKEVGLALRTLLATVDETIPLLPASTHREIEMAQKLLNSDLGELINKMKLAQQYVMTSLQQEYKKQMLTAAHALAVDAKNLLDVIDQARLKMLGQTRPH

Usually Ki stands for a measure of affinity in units of concentration, obtained from inhibition or displacement. For the molecule `CCOC(=O)Cc1nc2c(N)cccc2[nH]1`, the Ki in assay [1] was > 6.31 µM (inactive); on Activated CDC42 kinase 1, > 3.98 µM (inactive); at Activin receptor type-1, > 3.98 µM (inactive); in assay [2], > 3.98 µM (inactive); in assay [3] it was > 6.31 µM (inactive); in [4] it was > 3.98 µM (inactive). Besides, the Ki is > 3.98 µM (inactive) in assay [5]; > 5.01 µM (inactive) in [6]; > 5.01 µM (inactive) in assay [7]; > 6.31 µM (inactive) on Focal adhesion kinase 1; > 3.98 µM (inactive) on Aurora kinase B; > 3.98 µM (inactive) in [8]. Moreover, the Ki in assay [9] is > 6.31 µM (inactive); in assay [10] it was 0.398 µM (active); in assay [11] it was > 5.01 µM (inactive); in [12], > 5.01 µM (inactive); in assay [13] it was > 3.98 µM (inactive); in assay [14], > 3.98 µM (inactive). Also, the Ki in [15] is > 3.98 µM (inactive); in assay [16], > 6.31 µM (inactive); in [17], > 6.31 µM (inactive); in [18], > 5.01 µM (inactive); in [19], > 3.98 µM (inactive); in assay [20], > 3.98 µM (inactive). Moreover, the Ki in assay [21] is > 3.98 µM (inactive); in assay [22], > 6.31 µM (inactive).
One may read the EC50 as the concentration at which the effect is half-maximal. One may read the CC50 as the concentration at which the toxic effect on the cells reaches its halfway point. Consider `O=C(c1cc(C2CC2)on1)N(C1CCCCC1)C1CCCCC1`, for which the EC50 in [23] was > 50 µM (inactive); in assay [25], > 50 µM (inactive); in [26] it was > 25 µM (inactive). In addition, the CC50 in assay [24] was > 10 µM (inactive).
For `CCOC(=O)c1cn(-c2ccc(O)cc2C)c2cc(-c3ccccc3)ccc2c1=O`, the Ki is 3.98 µM (active) in assay [27]; 3.16 µM (active) in [28]; 1.26 µM (active) in assay [3]; 5.01 µM (active) in assay [29]; 7.94 µM (active) in [30]; 5.01 µM (active) in assay [31].
